Earlier results on 4 compounds are cited in patent publication US12011496B2, “Topical macqui berry formulation” (Tracie Martyn International, Inc., priority 2005, dated 2024).

Usually IC50 stands for the concentration needed to halve the response being measured.

For data set [1] the following is noted: animal studies.
For data set [2] the following is noted: antioxidant properties.
For data set [3] the following is noted: using only natural ingredients (botanicals, antioxidants, coffe oil and microfine zinc oxide).

Regarding `NCCC(=O)N[C@@H](Cc1cnc[nH]1)C(=O)O` [Carnosine, β-alanyl-L-histidine], the “safety at dosages above 500 mg/kg body weight” value in data set [1] is “safe”.
Regarding `O=C(/C=C/c1ccc(O)c(O)c1)O[C@H](Cc1ccc(O)c(O)c1)C(=O)O` [Rosmarinic acid], the IC50 in data set [2] is 740 nM.
With `COc1ccc(C=CC(=O)OCCC(C)C)cc1` [isoamyl-p-methoxycinnamate], the spf entry in data set [3] is given as “greater than 30”.
On to `C=CCc1cc(OC)c2c(c1)OCO2` [myristicin, 3-methoxy,4,5-methylendioxy-allylbenzene], for which the oral psychotropic dose is 400 mg.
